Read-outs that look alike come from different tables or passages of the source.
Legend:
human recombinant BACE2 = human recombinant BACE2 (Homo sapiens (Human), UniProt Q9Y5Z0); test: In vitro enzymatic BACE2 FRET assay; format: biochemical; settings: read-out: BACE2 Enzyme IC50
Description: (§1) In Vitro Enzymatic BACE1 and BACE2 FRET (Fluorescence Resonance Energy Transfer) Assays […] These recombinant proteins were further purified using Ni-NTA affinity chromatography (Qiagen). […] The assay was effectively started by the addition of FRET substrate (50 nM) and the combination was incubated for one hour. The FRET assay was terminated by the addition of tris buffer, which raised the pH to neutrality, and the fluorescence was determined. The FRET substrate was a peptide with commercially available fluorophore and quencher, on opposite sides of the BACE cleavage site. The specific FRET substrate used in this assay was made by Amgen in-house. Commercially available FRET substrates, for example, the FRET substrate offered with the BACE1 FRET Assay Kit sold by ThermoFisher Scientific (Catalog Number P2985), may be used in this assay with the appropriate modifications, which are within the purview of the ability of a person with ordinary skill in the art. Proteolytic cleavage of the FRET substrate released quenching of fluorescence (excitation 488 nm and emission 590 nm).

human recombinant BACE1 = human recombinant BACE1 (Homo sapiens (Human), UniProt P56817); test: In vitro enzymatic BACE1 FRET assay; format: biochemical; settings: read-out: BACE1 Enzyme IC50
Description: as §1

Recombinant CatD = Recombinant CatD (Homo sapiens (Human), UniProt P07339); test: In vitro enzymatic Cathepsin D (CatD) FRET assay; format: biochemical; settings: read-out: Cat D Enzyme IC50
Description: In Vitro Enzymatic Cathepsin D (CatD) FRET Assay Recombinant CatD was expressed in CHO cells. The assay buffer for CatD was 0.05 M citrate pH 3.5, 10% DMSO final, 5 mM CHAPS. […] The assays was effectively started by the addition of different FRET substrates (20 nM for CatD) and the combination was incubated for one hour. The FRET assay was terminated with by addition of tris buffer, which raises the pH to neutrality, and the fluorescence was determined. The FRET substrate was a peptide with commercially available fluorophore and quencher, on opposite sides of the CatD cleavage site. The CatD substrate peptide sequence was based on sequence #1 of Table 1 from Gulnik et al., FEBS Lett. 413(2):379-384 (1997). Proteolytic cleavage of the FRET substrate released quenching of fluorescence (CatD excitation 500 nm and emission 580 nm). The in vitro CatD FRET assay data for each of the Examples is provided in Table 2, conducted by the first procedure described above. […] Thus, with this surprising selectivity profile, the compounds provided herein are believed to minimize, reduce or completely eliminate any risk of retinal atrophy and abnormal development of the eye and of the retinal pigmented epithelium as it relates to the normal function and activity of CatD.

[1] = system: BACE1 (Aβ40 from cells stably expressing Amyloid Precursor Protein); test: In vitro BACE1 cell-based assay (Aβ40 in conditioned medium, HTRF)
Description: In Vitro BACE1 Cell-Based Assay The cell-based assay measures inhibition or reduction of Aβ40 in conditioned medium of test compound treated cells expressing amyloid precursor protein. Cells stably expressing Amyloid Precursor Protein (APP) were plated at a density of 45K cells/well in 384 well plates (Corning/BioCoat 354663). The test compounds were then added to cells in 22-point dose response concentrations with the starting concentration being 62.5 μM. The compounds were diluted from stock solutions in DMSO and the final DMSO concentration of the test compounds on cells was 0.625%. The cells were cultivated overnight at 37° C. and 5% CO2 in DMEM supplemented with 10% FBS. After 24 h of incubation with the test compounds, the conditioned media was collected and the Aβ40 levels were determined using HTRF (Homogeneous Time Resolved Fluorescence). […] The HTRF to detect Aβ40 was performed in 384 well plates (Costar 3658). The antibody pair that were used to detect Aβ 40 from cell supernatants were ConfAb40 antibody (Amgen in-house) and biotinylated 6E10 (BIOLEGEND). As an alternative to ConfAb40, a commercially available antibody, Anti-beta Amyloid 1-40 antibody [BDI350] from Abcam, Cambridge, Mass. 02139-1517 (Product code: ab20068), may be used in this assay. […] The conditioned media was incubated with above antibodies and Streptavidin Allophycocyanin Conjugate for 30-60 minutes at 23° C. The final readout was performed on Envision from PerkinElmer.

[2] = Aβ40, 24 h incubation, read-out: BACE1 Cell IC50
[3] = 24 h, read-out: BACE1 Cell IC50 (μM)

Chain of Recombinant CatD (P07339 65-412): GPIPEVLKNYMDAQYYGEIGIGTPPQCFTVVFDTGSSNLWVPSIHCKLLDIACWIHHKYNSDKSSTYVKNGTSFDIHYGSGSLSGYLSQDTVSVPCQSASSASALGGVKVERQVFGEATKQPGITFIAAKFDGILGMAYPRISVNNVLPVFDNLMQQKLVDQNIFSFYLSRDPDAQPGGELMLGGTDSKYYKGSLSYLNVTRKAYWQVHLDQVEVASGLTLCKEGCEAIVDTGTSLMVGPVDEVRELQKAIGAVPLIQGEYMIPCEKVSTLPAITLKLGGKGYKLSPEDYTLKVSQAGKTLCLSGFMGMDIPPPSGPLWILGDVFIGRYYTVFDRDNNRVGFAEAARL
Chain of human recombinant BACE1 (P56817 46-501): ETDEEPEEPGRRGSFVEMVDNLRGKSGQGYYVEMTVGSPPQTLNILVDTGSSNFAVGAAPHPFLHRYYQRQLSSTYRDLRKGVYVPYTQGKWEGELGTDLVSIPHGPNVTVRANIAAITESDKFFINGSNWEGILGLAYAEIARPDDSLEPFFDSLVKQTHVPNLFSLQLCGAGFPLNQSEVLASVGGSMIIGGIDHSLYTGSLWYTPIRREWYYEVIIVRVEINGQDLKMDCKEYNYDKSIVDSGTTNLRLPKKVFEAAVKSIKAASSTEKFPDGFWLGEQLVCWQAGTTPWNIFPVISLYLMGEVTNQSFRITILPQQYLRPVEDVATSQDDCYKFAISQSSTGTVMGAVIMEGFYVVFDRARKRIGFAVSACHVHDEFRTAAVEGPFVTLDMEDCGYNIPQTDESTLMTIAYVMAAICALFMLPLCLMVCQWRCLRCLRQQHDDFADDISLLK
Chain of human recombinant BACE2 (Q9Y5Z0 63-518): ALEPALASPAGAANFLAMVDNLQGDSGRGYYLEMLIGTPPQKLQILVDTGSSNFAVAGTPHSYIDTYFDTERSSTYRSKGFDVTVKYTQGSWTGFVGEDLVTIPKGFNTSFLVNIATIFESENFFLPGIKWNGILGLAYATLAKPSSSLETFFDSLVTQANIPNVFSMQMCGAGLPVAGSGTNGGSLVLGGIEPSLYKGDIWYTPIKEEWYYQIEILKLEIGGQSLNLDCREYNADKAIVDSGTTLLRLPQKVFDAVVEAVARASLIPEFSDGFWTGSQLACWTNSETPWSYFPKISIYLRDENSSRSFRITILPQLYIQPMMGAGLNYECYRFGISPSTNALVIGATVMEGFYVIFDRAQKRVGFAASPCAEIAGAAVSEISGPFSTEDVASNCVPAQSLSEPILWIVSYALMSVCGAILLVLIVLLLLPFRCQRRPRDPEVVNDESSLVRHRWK

| Compound | IC50 (human recombinant BACE2) [nM] | IC50 (human recombinant BACE1) [nM] | IC50 (Recombinant CatD) [µM] | IC50 [1, 2] [µM] | IC50 [1, 3] [µM] |
| --- | --- | --- | --- | --- | --- |
| NC1=N[C@]2(c3cc(/C=C(\F)c4ccc(Cl)cn4)ccc3F)COC[C@@H]2CS1 [Example 104, (4aR,7aR)-7a-(5-((Z)-2-(5-chloropyridin-2-yl)-2-fluorovinyl)-2-fluorophenyl)-4a,5,7,7a-tetrahydro-4H-furo[3,4-d][1,3]thiazin-2-amine] | 7480 | 804 | 654 | 2.26 |  |
| NC1=N[C@@]2(c3cc(/C=C(\F)c4ccc(OC(F)(F)F)cn4)ccc3F)CO[C@H](C(F)(F)F)[C@H]2CS1 [Example 129, (4aS,5S,7aS)-7a-(2-fluoro-5-((Z)-2-fluoro-2-(5-(trifluoromethoxy)pyridin-2-yl)vinyl)phenyl)-5-(trifluoromethyl)-4a,5,7,7a-tetrahydro-4H-furo[3,4-d][1,3]thiazin-2-amine] | 2220 | 108 | > 44.4 | 0.0151 |  |
| N#Cc1ccc(/C(F)=C/c2ccc(F)c([C@@]34CO[C@@H](C(F)(F)F)[C@@H]3CSC(N)=N4)c2)nc1 [Example 125, 6-((Z)-2-(3-((4aR,5R,7aR)-2-amino-5-(trifluoromethyl)-4a,5,7,7a-tetrahydro-4H-furo[3,4-d][1,3]thiazin-7a-yl)-4-fluorophenyl)-1-fluorovinyl)nicotinonitrile] | 18000 | 2540 | 30.6 | 1.39 |  |
| COc1cnc(/C(F)=C/c2ccc(F)c([C@]34CN(c5ncc(F)cn5)C[C@H]3CSC(N)=N4)c2)cn1 [Example 108, (4aR,7aS)-7a-(2-fluoro-5-((Z)-2-fluoro-2-(5-methoxypyrazin-2-yl)vinyl)phenyl)-6-(5-fluoropyrimidin-2-yl)-4,4a,5,6,7,7a-hexahydropyrrolo[3,4-d][1,3]thiazin-2-amine] | 34 | 2.71 | 14.8 | 0.016 |  |
| COc1cnc(/C(F)=C/c2ccc(F)c([C@]34CO[C@H](C(F)(F)F)[C@H]3CSC(N)=N4)c2)cn1 [Example 136, (4aS,5S,7aS)-7a-(2-fluoro-5-((Z)-2-fluoro-2-(5-methoxypyrazin-2-yl)vinyl)phenyl)-5-(trifluoromethyl)-4a,5,7,7a-tetrahydro-4H-furo[3,4-d][1,3]thiazin-2-amine] | 6630 | 622 | > 400 | 2.03 |  |
| N#Cc1ccc(/C(F)=C/c2ccc(F)c([C@@]34CN(c5ncc(F)cn5)C[C@@H]3CSC(N)=N4)c2)nc1 [Example 103, 6-((Z)-2-(3-((4aS,7aR)-2-amino-6-(5-fluoropyrimidin-2-yl)-4,4a,5,6,7,7a-hexahydropyrrolo[3,4-d][1,3]thiazin-7a-yl)-4-fluorophenyl)-1-fluorovinyl)nicotinonitrile] | 27.2 | 1.86 | 246 | 0.00545 |  |
| C#C[C@H](C)Oc1cnc(/C(F)=C/c2ccc(F)c([C@]34CN(c5ncc(F)cn5)C[C@H]3CSC(N)=N4)c2)cn1 [Example 115, (4aR,7aS)-7a-(5-((Z)-2-(5-((S)-but-3-yn-2-yloxy)pyrazin-2-yl)-2-fluorovinyl)-2-fluorophenyl)-6-(5-fluoropyrimidin-2-yl)-4,4a,5,6,7,7a-hexahydropyrrolo[3,4-d][1,3]thiazin-2-amine] | 15.3 | 1.01 | 18.9 | 0.000542 |  |
| N#Cc1ccc(/C(F)=C/c2ccc(F)c([C@]34COC[C@H]3CSC(N)=N4)c2)nc1 [Example 107, 6-((Z)-2-(3-((4aS,7aS)-2-amino-4a,5,7,7a-tetrahydro-4H-furo[3,4-d][1,3]thiazin-7a-yl)-4-fluorophenyl)-1-fluorovinyl)nicotinonitrile] | 279 | 11.7 | > 400 | 0.041 |  |
| C#CCOc1cnc(/C(F)=C/c2ccc(F)c([C@]34CN(C(=O)CC(F)(F)F)C[C@H]3CSC(N)=N4)c2)cn1 [Example 119, 1-((4aR,7aS)-2-amino-7a-(2-fluoro-5-((Z)-2-fluoro-2-(5-(prop-2-yn-1-yloxy)pyrazin-2-yl)vinyl)phenyl)-4a,5,7,7a-tetrahydropyrrolo[3,4-d][1,3]thiazin-6(4H)-yl)-3,3,3-trifluoropropan-1-one] | 510 | 9.45 | 105 | 0.0265 |  |
| NC1=N[C@@]2(c3cc(/C=C(\F)c4ccc(C(F)(F)F)cn4)ccc3F)CO[C@H](C(F)(F)F)[C@H]2CS1 [Example 139, (4aS,5S,7aS)-7a-(2-fluoro-5-((Z)-2-fluoro-2-(5-(trifluoromethyl)pyridin-2-yl)vinyl)phenyl)-5-(trifluoromethyl)-4a,5,7,7a-tetrahydro-4H-furo[3,4-d][1,3]thiazin-2-amine] | 1500 | 15.8 | > 400 | 0.117 |  |
| NC1=N[C@]2(c3cc(/C=C(\F)c4ccc(Cl)cn4)ccc3F)CN(c3ncc(F)cn3)C[C@@H]2CS1 [Example 100, (4aS,7aR)-7a-(5-((Z)-2-(5-chloropyridin-2-yl)-2-fluorovinyl)-2-fluorophenyl)-6-(5-fluoropyrimidin-2-yl)-4,4a,5,6,7,7a-hexahydropyrrolo[3,4-d][1,3]thiazin-2-amine] | 495 | 847 | 544 |  | 1.25 |
| C#CCOc1cnc(/C(F)=C/c2ccc(F)c([C@]34CN(C(=O)OC)C[C@H]3CSC(N)=N4)c2)cn1 [Example 121, (4aR,7aS)-methyl 2-amino-7a-(2-fluoro-5-((Z)-2-fluoro-2-(5-(prop-2-yn-1-yloxy)pyrazin-2-yl)vinyl)phenyl)-4a,5,7,7a-tetrahydropyrrolo[3,4-d][1,3]thiazine-6(4H)-carboxylate] | 258 | 1.59 | 47.9 |  | 0.00679 |
| N#Cc1ccc(/C(F)=C/c2ccc(F)c([C@@]34COC[C@@H]3CSC(N)=N4)c2)nc1 [Example 106, 6-((Z)-2-(3-((4aR,7aR)-2-amino-4a,5,7,7a-tetrahydro-4H-furo[3,4-d][1,3]thiazin-7a-yl)-4-fluorophenyl)-1-fluorovinyl)nicotinonitrile] | 6390 | 502 | 815 | 0.985 |  |
| N#Cc1ccc(/C(F)=C/c2ccc(F)c([C@]34CO[C@H](CF)[C@H]3CSC(N)=N4)c2)nc1 [Example 131, 6-((Z)-2-(3-((4aS,5S,7aS)-2-amino-5-(fluoromethyl)-4a,5,7,7a-tetrahydro-4H-furo[3,4-d][1,3]thiazin-7a-yl)-4-fluorophenyl)-1-fluorovinyl)nicotinonitrile] | 427 | 3.83 | > 400 | 0.0115 |  |
| COc1nc(N2C[C@H]3CSC(N)=N[C@@]3(c3cc(/C=C(\F)c4ccc(C#N)cn4)ccc3F)C2)nc(C)c1F [Example 130, 6-((Z)-2-(3-((4aR,7aS)-2-amino-6-(5-fluoro-4-methoxy-6-methylpyrimidin-2-yl)-4,4a,5,6,7,7a-hexahydropyrrolo[3,4-d][1,3]thiazin-7a-yl)-4-fluorophenyl)-1-fluorovinyl)nicotinonitrile] | 1.78 | 0.405 | 25.8 | 0.000906 |  |

— patent publication US11548903B2, “Bicyclic thiazine and oxazine derivatives as beta-secretase inhibitors and methods of use” (AMGEN INC., priority 2016, dated 2023)
